Counter-ions that a name gives are not always drawn.
Tests used:
[1] = tested on: ^14C-acetate incorporation into the steroids which can be precipitated with digitonin; assay: Inhibition of 14C-acetate incorporation into the steroids which can be precipitated with digitonin; type: cell-based; settings: for inhibition at 0.01 µM / inhibition at 0.001 µM: read-out: percentage by which the compound inhibits the 14C-acetate incorporation
Protocol: I. Measuring the Inhibition of ^14C-acetate Incorporation into the Steroids which can be Precipitated with Digitonin
The inhibitory effect was investigated using the method described in J. Lipid. Res. 37, 148-157 [1996] at test concentrations of 10^−8 and 10^−9 mol/l.
The IC50 values of compounds H, I, K and M were determined.

[2] = biological target: T1, 2,3-epoxysqualene-lanosterol-cyclase (Rattus norvegicus, UniProt P48450); assay: In-vivo activity in the rat after oral administration: 2,3-epoxysqualene level in the liver
T1 construct: The quantity of 2,3-epoxysqualene formed therefore serves as a direct measurement of the potency on the animal as a whole; from tissue; host or cells: living rat; 2,3-epoxysqualene measured in the liver
T1 sequence (P48450 1-733): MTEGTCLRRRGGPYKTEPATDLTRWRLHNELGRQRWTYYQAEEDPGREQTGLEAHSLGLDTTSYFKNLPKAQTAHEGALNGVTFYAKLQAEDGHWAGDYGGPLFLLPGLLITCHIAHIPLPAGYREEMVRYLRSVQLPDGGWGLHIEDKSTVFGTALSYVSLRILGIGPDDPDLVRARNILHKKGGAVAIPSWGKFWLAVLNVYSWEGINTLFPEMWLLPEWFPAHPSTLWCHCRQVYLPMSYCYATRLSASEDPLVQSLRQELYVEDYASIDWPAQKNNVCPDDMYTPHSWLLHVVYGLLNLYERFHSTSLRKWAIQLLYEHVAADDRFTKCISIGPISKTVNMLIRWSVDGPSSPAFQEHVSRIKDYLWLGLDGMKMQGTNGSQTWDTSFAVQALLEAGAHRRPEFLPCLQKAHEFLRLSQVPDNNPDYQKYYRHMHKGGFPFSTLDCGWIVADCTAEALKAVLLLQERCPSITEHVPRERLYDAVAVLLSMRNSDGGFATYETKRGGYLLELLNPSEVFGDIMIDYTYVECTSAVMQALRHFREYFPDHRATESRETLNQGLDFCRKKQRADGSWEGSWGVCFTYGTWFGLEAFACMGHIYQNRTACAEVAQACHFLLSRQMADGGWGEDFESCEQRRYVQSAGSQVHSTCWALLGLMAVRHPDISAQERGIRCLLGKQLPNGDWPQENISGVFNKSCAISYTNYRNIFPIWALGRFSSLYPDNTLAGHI
Protocol: II. Measuring the In-vivo Activity in the Rat after Oral Administration
Inhibiting the enzyme 2,3-epoxysqualene-lanosterol-cyclase causes an increase in the 2,3-epoxisqualene levels in the liver and plasma. The quantity of 2,3-epoxysqualene formed therefore serves as a direct measurement of the potency on the animal as a whole. The amounts were determined using the method described in J. Lipid. Res. 38, 564-575, [1997] after t=3 or 8 hours after administration of the substance in concentrations of c=0.01, 0.03, 0.1, 0.3 and 1.0 mg/kg. Table 3 which follows gives the results obtained for the abovementioned substances A, B, C, D, E, G, H, I and K by way of example.
In the control animals there were no measurable 2,3-epoxisqualene levels under these conditions.

[3] = tested on: normolipaemic golden hamster; assay: Lipid reduction in the normolipaemic golden hamster; type: in vivo; settings: compared with control group
Protocol: III. Lipid Reduction in the Normolipaemic Golden Hamster This was determined using the method described in J. Lipid. Res. 38, 564-575, (1997). At the end of the experiment the total cholesterol, β-lipoprotein-cholesterol and HDL-cholesterol were determined and compared with the values of a control group which were fed without any test substance. The lipid-lowering activity of the abovementioned compound H was tested.

| SMILES | inhibition at 0.01 µM ([1]; test concentration 10^−8 mol/l) [%] | inhibition at 0.001 µM ([1]; test concentration 10^−9 mol/l) [%] | 2,3-epoxysqualene concentration in the liver (rat) ([2]; c=0.1 mg/kg, t=3 h) [µg/g] | 2,3-epoxysqualene concentration in the liver (rat) ([2]; c=0.1 mg/kg, t=8 h) [µg/g] | 2,3-epoxysqualene concentration in the liver (rat) ([2]; c=1.0 mg/kg, t=3 h) [µg/g] | 2,3-epoxysqualene concentration in the liver (rat) ([2]; c=1.0 mg/kg, t=8 h) [µg/g] | IC50 [1] [nM] | further results |
| --- | --- | --- | --- | --- | --- | --- | --- | --- |
| CN(C)Cc1ccc(SC2CCN(C(=O)Oc3ccccc3)CC2)cc1.Cl | – | – | – | – | – | – | – | melting point: 161 °C |
| CN(C)Cc1ccc(SC2CCN(C(=O)OCc3ccccc3)CC2)cc1.Cl [(C), N-benzyloxycarbonyl-4-[4-(dimethylaminomethyl)phenylthio]piperidine-hydrochloride] | 78 | 57 | 0.5 | 1.3 | 3.8 | 2.0 | – | 2,3-epoxysqualene concentration in the liver (rat) ([2]; c=0.01 mg/kg, t=3 h): 0.6 µg/g; 2,3-epoxysqualene concentration in the liver (rat) ([2]; c=0.01 mg/kg, t=8 h): 3.0 µg/g; 2,3-epoxysqualene concentration in the liver (rat) ([2]; c=0.3 mg/kg, t=3 h): 0.5 µg/g; 2,3-epoxysqualene concentration in the liver (rat) ([2]; c=0.3 mg/kg, t=8 h): 1.8 µg/g |
| CN(C)Cc1ccc(CC2CCN(C(=O)OCc3ccccc3)CC2)cc1.Cl [(I), N-benzyloxycarbonyl-4-[4-(dimethylaminomethyl)benzyl]piperidine-hydrochloride] | 85 | 47 | 1.0 | – | 26.1 | 10.0 | 1.2 | – |
| CN(C)Cc1ccc(CC2CCN(C(=O)Oc3ccc(F)cc3)CC2)cc1.Cl [(M), 4-[4-(dimethylaminomethyl)benzyl]-N-(4-fluorphenoxy)carbonylpiperidine-hydrochloride] | – | – | – | – | – | – | 1.5 | percentage by which the compound inhibits the 14C-acetate incorporation ([1]; test concentration 10^−8 mol/l): −84%; percentage by which the compound inhibits the 14C-acetate incorporation ([1]; test concentration 10^−9 mol/l): −59%; HDL-cholesterol ([3]; dose 57.5 mg/kg/day): −20.4%; Total cholesterol ([3]; dose 57.5 mg/kg/day): −26.8%; β-Lipoprotein-cholesterol ([3]; dose 57.5 mg/kg/day): −31.6% |
| Cc1ccc(CC(=O)O[C@H]2CC[C@H](c3ccc(CN(C)C)cc3)CC2)cc1 [(W), trans-O-(p-tolylacetyl)-4-(4-dimethylaminomethylphenyl)cyclohexanol, reference compound] | 72 | 21 | – | – | – | – | 9.6 | – |
| CN(C)Cc1ccc(CC2CCN(C(=S)SCc3ccccc3)CC2)cc1.Cl [(E), N-(benzylthio)thiocarbonyl-4-[4-(dimethylaminomethyl)benzyl]piperidine-hydrochloride] | 87 | 47 | 5.6 | 4.4 | – | – | – | 2,3-epoxysqualene concentration in the liver (rat) ([2]; c=0.01 mg/kg, t=3 h): 0.9 µg/g; 2,3-epoxysqualene concentration in the liver (rat) ([2]; c=0.01 mg/kg, t=8 h): 1.0 µg/g |
| CN(C)Cc1ccc(CC2CCN(C(=S)Oc3ccc(Cl)cc3)CC2)cc1.Cl [(G), N-(4-chlorophenoxy)thiocarbonyl-4-[4-(dimethylaminomethyl)benzyl]piperidine-hydrochloride] | 83 | 56 | 10.3 | 11.5 | 87.4 | 134.2 | – | – |
| CN(C)Cc1ccc(SC2CCN(C(=S)SCc3ccccc3)CC2)cc1.Cl [(A), N-(benzylthio)thiocarbonyl-4-[4-(dimethylaminomethyl)phenylthio]piperidine-hydrochloride] | 85 | 53 | – | – | 9.3 | 9.8 | – | 2,3-epoxysqualene concentration in the liver (rat) ([2]; c=0.3 mg/kg, t=3 h): 2.0 µg/g; 2,3-epoxysqualene concentration in the liver (rat) ([2]; c=0.3 mg/kg, t=8 h): 1.2 µg/g |
| CN(C)Cc1ccc(C=C2CCN(C(=S)SCc3ccccc3)CC2)cc1 [(F), N-(benzylthio)thiocarbonyl-4-[4-(dimethylaminomethyl)benzyliden]piperidine-hydrochloride] | 84 | 45 | – | – | – | – | – | – |
| CN(C)Cc1ccc(CC2CCN(C(=O)Oc3ccc(Cl)cc3)CC2)cc1.Cl [(H), N-(4-chlorophenoxy)carbonyl-4-[4-(dimethylaminomethyl)benzyl]piperidine-hydrochloride] | 80 | 45 | 1.0 | 0.8 | 56.3 | 20.7 | 0.8 | HDL-cholesterol ([3]; dose 6.5 mg/kg/day): −3.4%; Total cholesterol ([3]; dose 6.5 mg/kg/day): −8.3%; β-Lipoprotein-cholesterol ([3]; dose 6.5 mg/kg/day): −13.0%; HDL-cholesterol ([3]; dose 19.9 mg/kg/day): −8.2%; Total cholesterol ([3]; dose 19.9 mg/kg/day): −11.0%; β-Lipoprotein-cholesterol ([3]; dose 19.9 mg/kg/day): −13.2%; HDL-cholesterol ([3]; dose 62.3 mg/kg/day): −28.5%; Total cholesterol ([3]; dose 62.3 mg/kg/day): −32.1%; β-Lipoprotein-cholesterol ([3]; dose 62.3 mg/kg/day): −33.7% |
| CN(C)Cc1ccc(SC2CCN(C(=O)Oc3ccc(Cl)cc3)CC2)cc1.Cl [(D), N-(4-chlorophenoxy)carbonyl-4-[4-(dimethylaminomethyl)phenylthio]piperidine-hydrochloride] | 86 | 55 | 1.4 | 1.8 | – | – | – | 2,3-epoxysqualene concentration in the liver (rat) ([2]; c=0.01 mg/kg, t=3 h): 1.3 µg/g; 2,3-epoxysqualene concentration in the liver (rat) ([2]; c=0.01 mg/kg, t=8 h): 1.0 µg/g |
| CN(C)Cc1ccc([C@H]2CC[C@H](N(C)C(=O)c3ccc(Cl)cc3)CC2)cc1 [(V), reference compound] | – | – | – | – | – | – | 3.8 | percentage by which the compound inhibits the 14C-acetate incorporation ([1]; test concentration 10^−8 mol/l): −59%; percentage by which the compound inhibits the 14C-acetate incorporation ([1]; test concentration 10^−9 mol/l): −23% |
| Cc1ccc(OC(=O)N2CCC(Cc3ccc(CN(C)C)cc3)CC2)cc1.Cl [(K), 4-[4-(dimethylaminomethyl)benzyl]-N-(4-methylphenoxy)carbonylpiperidine-hydrochloride] | 82 | 49 | 0.4 | 0.4 | 24.0 | 5.5 | 1.4 | HDL-cholesterol ([3]; dose 54.2 mg/kg/day): 2.3%; Total cholesterol ([3]; dose 54.2 mg/kg/day): −6.8%; β-Lipoprotein-cholesterol ([3]; dose 54.2 mg/kg/day): −21.2% |
| Cc1ccc(OC(=S)N2CCC(Cc3ccc(CN(C)C)cc3)CC2)cc1 [(L), 4-[4-(dimethylaminomethyl)benzyl]-N-(4-methylphenoxy)thiocarbonylpiperidine-hydrochloride] | 88 | 64 | – | – | – | – | – | – |
| CN(C)Cc1ccc(C(=O)C2CCN(C(=S)SCc3ccccc3)CC2)cc1.Cl [(B), N-(benzylthio)thiocarbonyl-4-[4-(dimethylaminomethyl)benzoyl]piperidine-hydrochloride] | 85 | 47 | – | – | 39.2 | 42.0 | – | 2,3-epoxysqualene concentration in the liver (rat) ([2]; c=0.3 mg/kg, t=3 h): 4.5 µg/g; 2,3-epoxysqualene concentration in the liver (rat) ([2]; c=0.3 mg/kg, t=8 h): 5.8 µg/g |

From US6339096B1, “Urethanes derived from azacycloalkanes, the thio and dithio analogues thereof and their use as cholesterol biosynthesis inhibitors” (Boehringer Ingelheim Pharma KG, priority 1998, dated 2002)
